Ten molecules from patent US10196403B2, “Compounds and compositions and uses thereof” (Sunovion Pharmaceuticals Inc., priority 2016, dated 2019) can be followed below.

The subject of the test is mice. Briefly: Neuropharmacological Assay (SmartCube). Format: in vivo. The following applies: for minimal effective dose: Mus musculus, MED = dose having 50% or more total activity in SmartCube, read-out: POTENCY (minimal effective dose, MED); for AD: ADHD (SmartCube probability) / AG: analgesic (SmartCube probability) / AX: anxiolytic (SmartCube probability) / CE: cognitive enhancer (SmartCube probability) / DP: anti-depressant (SmartCube probability) / MS: mood stabilizer (SmartCube probability) / PS: anti-psychotic (SmartCube probability) / SD: sedative hypnotic (SmartCube probability) / UN: uncharacterized CNS activity (SmartCube probability): mice, i.p. 15 min before test, most efficacious dose(s) of 3 doses. The text has this:
Neuropharmacological Assay (SmartCube™)
Neurosci. 2011 Sep. 9; 5:103 (doi: 10.3389/fnins.2011.00103) (“Roberds”). As reported in Roberds, because psychiatric diseases generally result from disorders of cell-cell communication, circuitry, intact systems are useful in detecting improvement in disease-relevant endpoints. These endpoints are typically behavioral in nature, often requiring human observation and interpretation. To facilitate testing of multiple compounds for behavioral effects relevant to psychiatric disease, PsychoGenics, Inc. (Tarrytown, N.Y., “PGI”) developed SmartCube™, an automated system in which behaviors of compound-treated mice are captured by digital video and analyzed with computer algorithms. (D. Brunner et al., Drug Discov. Today 2002, 7:S107-S112). PGI Analytical Systems uses data from SmartCube™ to compare the behavioral signature of a test compound to a database of behavioral signatures obtained using a large set of diverse reference compounds. (The composition of the database as well as validation of the method is further described in Roberds). In this way, the neuropharmacological effects of a test compound can be predicted by similarity to major classes of compounds, such as antipsychotics, anxiolytics and antidepressants.
The SmartCube™ system produces an activity signature indicating the probability that the activity of the test compound at the administered dose matches a given class of neuropharmacological agents. (See, e.g., Roberds, FIGS. 2 and 3). The test compound is simultaneously compared against multiple classes of agents; thus, a separate probability is generated for each behavioral effect measured (e.g., anxiolytic activity, analgesic activity, etc.). In the table below, these probabilities are reported for each behavioral effect measured as follows:
where LOQ is the limit of quantification.
Provided compounds were dissolved in a mixture of Pharmasolve™ (N-methyl-2-pyrrolidone), polyethylene glycol and propylene glycol, and were injected i.p. 15 min. before the behavioral test. For each compound, injections were administered at 3 different doses. For each behavioral effect measured, results for the most efficacious dose(s) are presented. In the table below, DP: anti-depressant; AX: anxiolytic; SD: sedative hypnotic; PS: anti-psychotic; MS: mood stabilizer; AD: ADHD; CE: cognitive enhancer; AG: analgesic; UN: uncharacterized CNS activity.
The potency of many of the compounds in the table was also determined in the SmartCube™ system. Test compounds were routinely examined at dose levels of 0.3, 1, 3 10 and 30 mg per kg (mpk), although the dose range was increased or decreased if necessary to obtain a full dose response curve. A compound's minimal effective dose (MED) is a measure of the compounds potency. The MED was defined as the dose (in mpk) having 50% or more total activity in SmartCube.

A word on the minimal effective dose: it is the smallest amount tested that counted as effective. For `CNC[C@H]1OCC(C)(C)c2ccccc21` [Example 23, (S)-1-(4,4-dimethylisochroman-1-yl)-N-methylmethanamine], the minimal effective dose was in the range of 3 to 10 mg/kg, the “AD: ADHD (SmartCube probability)” value is reported as “+ (LOQ≤ + <5%)”, the “AG: analgesic (SmartCube probability)” value is reported as “++ (5%≤ ++ <25%)” and the “AX: anxiolytic (SmartCube probability)” value was “++ (5%≤ ++ <25%)”. The “CE: cognitive enhancer (SmartCube probability)” value (from here on “CE: cognitive enhancer”) is recorded as “++ (5%≤ ++ <25%)”, the “DP: anti-depressant (SmartCube probability)” value (“DP: anti-depressant” below) is on record as “++ (5%≤ ++ <25%)”, the “MS: mood stabilizer (SmartCube probability)” value (“MS: mood stabilizer” below) is recorded as “+ (LOQ≤ + <5%)” and the “PS: anti-psychotic (SmartCube probability)” value (“PS: anti-psychotic” below) is “+++ (25%≤ +++ <50%)”. Also, the “SD: sedative hypnotic (SmartCube probability)” value (shortened to “SD: sedative hypnotic”) is “++ (5%≤ ++ <25%)” and the “UN: uncharacterized CNS activity (SmartCube probability)” value (“UN: uncharacterized CNS activity” below) was “+ (LOQ≤ + <5%)”.

Turning to `CNC[C@H]1OCc2cccc(F)c21` [Example 68, (S)-1-(7-fluoro-1,3-dihydroisobenzofuran-1-yl)-N-methylmethanamine], the minimal effective dose was 3 to 10 mg/kg, the “AD: ADHD (SmartCube probability)” value is listed as “+ (LOQ≤ + <5%)”, the “AG: analgesic (SmartCube probability)” value is recorded as “++ (5%≤ ++ <25%)” and the “AX: anxiolytic (SmartCube probability)” value is “++ (5%≤ ++ <25%)”. The “CE: cognitive enhancer” value was “++ (5%≤ ++ <25%)”, the “DP: anti-depressant” value is “++ (5%≤ ++ <25%)”, the “MS: mood stabilizer” value is on record as “+ (LOQ≤ + <5%)” and the “PS: anti-psychotic” value was “++ (5%≤ ++ <25%)”. Also, the “SD: sedative hypnotic” value is on record as “+++ (25%≤ +++ <50%)” and the “UN: uncharacterized CNS activity” value was “++ (5%≤ ++ <25%)”.

Turning to `CNC[C@H]1OCCc2cc(Cl)ccc21` [Example 80, (S)-1-(6-chloroisochroman-1-yl)-N-methylmethanamine], the minimal effective dose is 10 to 30 mg/kg, the “AD: ADHD (SmartCube probability)” value was “+ (LOQ≤ + <5%)”, the “AG: analgesic (SmartCube probability)” value was “+ (LOQ≤ + <5%)” and the “AX: anxiolytic (SmartCube probability)” value is on record as “++ (5%≤ ++ <25%)”. Moreover, the “CE: cognitive enhancer” value was “++ (5%≤ ++ <25%)”, the “DP: anti-depressant” value was “++ (5%≤ ++ <25%)”, the “MS: mood stabilizer” value is on record as “+ (LOQ≤ + <5%)” and the “PS: anti-psychotic” value is “+++ (25%≤ +++ <50%)”. Also, the “SD: sedative hypnotic” value was “+ (LOQ≤ + <5%)” and the “UN: uncharacterized CNS activity” value is “+ (LOQ≤ + <5%)”.

On to `CNC[C@@H]1OCCc2ccc3c(c21)OCCO3` [Example 10, (R)-N-methyl-1-(2,3,7,10-tetrahydro-8H-[1,4]dioxino[2,3-h]isochromen-10-yl)methanamine], for which the minimal effective dose lay in the range of 10 to 30 mg/kg, the “AD: ADHD (SmartCube probability)” value is given as “+ (LOQ≤ + <5%)”, the “AG: analgesic (SmartCube probability)” value was “+ (LOQ≤ + <5%)” and the “AX: anxiolytic (SmartCube probability)” value is “++ (5%≤ ++ <25%)”. Moreover, the “CE: cognitive enhancer” value is “++ (5%≤ ++ <25%)”, the “DP: anti-depressant” value is “++ (5%≤ ++ <25%)”, the “MS: mood stabilizer” value was “+ (LOQ≤ + <5%)” and the “PS: anti-psychotic” value is on record as “++ (5%≤ ++ <25%)”. The “SD: sedative hypnotic” value is recorded as “+ (LOQ≤ + <5%)” and the “UN: uncharacterized CNS activity” value is given as “+++ (25%≤ +++ <50%)”.

Consider `CCNC[C@H]1OCCc2cccc(F)c21` [Example 86, (S)-N-((8-fluoroisochroman-1-yl)methyl)ethanamine], for which the minimal effective dose fell in the range of 10 to 30 mg/kg, the “AD: ADHD (SmartCube probability)” value is “++ (5%≤ ++ <25%)”, the “AG: analgesic (SmartCube probability)” value was “+ (LOQ≤ + <5%)” and the “AX: anxiolytic (SmartCube probability)” value is given as “++ (5%≤ ++ <25%)”. The “CE: cognitive enhancer” value is on record as “++ (5%≤ ++ <25%)”, the “DP: anti-depressant” value is reported as “++ (5%≤ ++ <25%)”, the “MS: mood stabilizer” value was “+ (LOQ≤ + <5%)” and the “PS: anti-psychotic” value is listed as “++ (5%≤ ++ <25%)”. The “SD: sedative hypnotic” value was “+++ (25%≤ +++ <50%)” and the “UN: uncharacterized CNS activity” value is on record as “+ (LOQ≤ + <5%)”.

Consider `CNC[C@H]1OCCc2ccc3c(c21)OCC3` [Example 106, (S)-N-methyl-1-(2,3,6,9-tetrahydro-7H-furo[3,2-h]isochromen-9-yl)methanamine], for which the minimal effective dose fell in the range of 10 to 30 mg/kg, the “AD: ADHD (SmartCube probability)” value is given as “+ (LOQ≤ + <5%)”, the “AG: analgesic (SmartCube probability)” value is given as “+ (LOQ≤ + <5%)” and the “AX: anxiolytic (SmartCube probability)” value is listed as “++ (5%≤ ++ <25%)”. Also, the “CE: cognitive enhancer” value is recorded as “+++ (25%≤ +++ <50%)”, the “DP: anti-depressant” value is reported as “++ (5%≤ ++ <25%)”, the “MS: mood stabilizer” value is “+ (LOQ≤ + <5%)” and the “PS: anti-psychotic” value is “++ (5%≤ ++ <25%)”. Besides, the “SD: sedative hypnotic” value is listed as “++ (5%≤ ++ <25%)” and the “UN: uncharacterized CNS activity” value is “+ (LOQ≤ + <5%)”.

Consider `CNC[C@H]1OCCc2c(O)cc3c(c21)OCO3` (single isomer, unassigned) [Example 104], for which the minimal effective dose was less than 3 mg/kg, the “AD: ADHD (SmartCube probability)” value is on record as “+ (LOQ≤ + <5%)”, the “AG: analgesic (SmartCube probability)” value is given as “+ (LOQ≤ + <5%)” and the “AX: anxiolytic (SmartCube probability)” value is on record as “+++ (25%≤ +++ <50%)”. Besides, the “CE: cognitive enhancer” value is on record as “++ (5%≤ ++ <25%)”, the “DP: anti-depressant” value is “++++ (50%≤ ++++)”, the “MS: mood stabilizer” value is “+ (LOQ≤ + <5%)” and the “PS: anti-psychotic” value is recorded as “+ (LOQ≤ + <5%)”. Besides, the “SD: sedative hypnotic” value was “++ (5%≤ ++ <25%)” and the “UN: uncharacterized CNS activity” value was “++ (5%≤ ++ <25%)”.

On to `CNC[C@@H]1OC[C@H](O)c2ccc3c(c21)OCO3` (single isomer, unassigned) [Example 114], for which the minimal effective dose fell in the range of 10 to 30 mg/kg, the “AD: ADHD (SmartCube probability)” value is recorded as “+ (LOQ≤ + <5%)”, the “AG: analgesic (SmartCube probability)” value is “+ (LOQ≤ + <5%)” and the “AX: anxiolytic (SmartCube probability)” value is recorded as “++ (5%≤ ++ <25%)”. The “CE: cognitive enhancer” value is on record as “+ (LOQ≤ + <5%)”, the “DP: anti-depressant” value was “+ (LOQ≤ + <5%)”, the “MS: mood stabilizer” value is “+ (LOQ≤ + <5%)” and the “PS: anti-psychotic” value is on record as “++ (5%≤ ++ <25%)”. Besides, the “SD: sedative hypnotic” value is given as “+ (LOQ≤ + <5%)” and the “UN: uncharacterized CNS activity” value is “+++ (25%≤ +++ <50%)”.

Consider `CNC[C@@H]1OCCc2ccc3c(c21)OC(F)(F)O3` [Example 101, (R)-1-(2,2-difluoro-6,9-dihydro-7H-[1,3]dioxolo[4,5-h]isochromen-9-yl)-N-methylmethanamine], for which the minimal effective dose lay within 3 to 10 mg/kg, the “AD: ADHD (SmartCube probability)” value is reported as “+ (LOQ≤ + <5%)”, the “AG: analgesic (SmartCube probability)” value is on record as “+++ (25%≤ +++ <50%)” and the “AX: anxiolytic (SmartCube probability)” value was “++ (5%≤ ++ <25%)”. For the same molecule, the “CE: cognitive enhancer” value is “++ (5%≤ ++ <25%)”, the “DP: anti-depressant” value is “+ (LOQ≤ + <5%)”, the “MS: mood stabilizer” value was “+ (LOQ≤ + <5%)” and the “PS: anti-psychotic” value was “++ (5%≤ ++ <25%)”. In addition, the “SD: sedative hypnotic” value is on record as “+ (LOQ≤ + <5%)” and the “UN: uncharacterized CNS activity” value is “+ (LOQ≤ + <5%)”.

`CNC[C@H]1OCCc2cccc(Cl)c21` [Example 36, (S)-1-(8-chloroisochroman-1-yl)-N-methylmethanamine]: the minimal effective dose is 3 to 10 mg/kg, the “AD: ADHD (SmartCube probability)” value was “+ (LOQ≤ + <5%)”, the “AG: analgesic (SmartCube probability)” value was “+ (LOQ≤ + <5%)” and the “AX: anxiolytic (SmartCube probability)” value is “++ (5%≤ ++ <25%)”. The “CE: cognitive enhancer” value was “++ (5%≤ ++ <25%)”, the “DP: anti-depressant” value was “+ (LOQ≤ + <5%)”, the “MS: mood stabilizer” value is “+ (LOQ≤ + <5%)” and the “PS: anti-psychotic” value is given as “++ (5%≤ ++ <25%)”. For the same molecule, the “SD: sedative hypnotic” value was “+ (LOQ≤ + <5%)” and the “UN: uncharacterized CNS activity” value is “+++ (25%≤ +++ <50%)”.
